Results as given in ChEMBL document CHEMBL5579901, “Discovery of Novel [1,2,4]Triazolo[1,5-a]pyrimidine Derivatives as Novel Potent S-Phase Kinase-Associated Protein 2 (SKP2) Inhibitors for the Treatment of Cancer” (J Med Chem, 2024).
Calls of active or inactive are those of the source. The calls are words filed in the database; no cut-off is given here.

Key:
[1] = test system: MGC-803; experiment: Inhibition of colony formation in human MGC-803 cells at 3 uM incubated for 10 days by crystal violet staining based inverted microscopic analysis; assay type: functional, cell-based; conditions: time 10.0 day
[2] = test system: PC-3; experiment: Induction of cell cycle arrest in human PC-3 cells assessed as cells at G0/G1 phase at 5 uM incubated for 36 hrs by PI staining based flow cytometry (reference value: 54.5%); assay type: functional
[3] = test system: MGC-803; experiment: Induction of cell cycle arrest in human MGC-803 cells assessed as cells at G2/M phase at 5 uM incubated for 36 hrs by PI staining based flow cytometry (reference value: 20.6%); assay type: functional
[4] = Volume of distribution at steady state in Sprague-Dawley rat at 1 mg/kg, iv measured upto 24 hrs by LC/MS-MS analysis; assay type: ADME, organism-based; conditions: in vivo
[5] = test system: PC-3; experiment: Inhibition of cell invasion in human PC-3 cells incubated for 48 hrs by […]; assay type: functional, cell-based; conditions: dose 2.5-7.5 µM
[6] = test system: PC-3; experiment: Upregulation of p21 protein expression in human PC-3 cells at 15 uM by Western blotting analysis; assay type: functional, cell-based; conditions: time 6-48 hrs, TDE = time-dependent effect
[7] = test system: MGC-803; experiment: Induction of cell cycle arrest in human MGC-803 cells assessed as cells at G2/M phase at 15 uM incubated for 24 hrs by PI staining based flow cytometry (reference value: 20.8%); assay type: functional
[8] = test system: MGC-803; experiment: Induction of cell cycle arrest in human MGC-803 cells assessed as cells at G0/G1 phase at 15 uM incubated for 48 hrs by PI staining based flow cytometry (reference value: 57.9%); assay type: functional
[9] = test system: MGC-803; experiment: Induction of cell cycle arrest in human MGC-803 cells assessed as cells at G0/G1 phase at 5 uM incubated for 36 hrs by PI staining based flow cytometry (reference value: 57.1%); assay type: functional
[10] = test system: MGC-803; experiment: Upregulation of p27 protein expression in human MGC-803 cells at 5 to 15 uM incubated for 48 hrs by Western blotting analysis; assay type: functional, cell-based; conditions: dose 5-15 µM
[11] = test system: PC-3; experiment: Inhibition of cell proliferation in human PC-3 cells at 2 to 50 uM by MTT assay; assay type: functional, cell-based; conditions: dose 2-50 µM, time 24-72 hrs, TDE = time-dependent effect
[12] = target: S-phase kinase-associated protein 2 (Homo sapiens) (UniProt Q13309); experiment: Binding affinity to SKP2 in human PC-3 cells assessed as increase in thermal stability at 57 to 68 degreeC incubated for 4 hrs by CETSA; assay type: cell-based
[13] = Half-life in Sprague-Dawley rat at 50 mg/kg, po measured upto 24 hrs by LC/MS-MS analysis; assay type: ADME, organism-based; conditions: in vivo
[14] = test system: PC-3; experiment: Induction of cell cycle arrest in human PC-3 cells assessed as cells at G0/G1 phase at 15 uM incubated for 24 hrs by PI staining based flow cytometry (reference value: 55.1%); assay type: functional
[15] = target: Cyclin-dependent kinases regulatory subunit 1/S-phase kinase-associated protein 2 (Homo sapiens) (UniProt P61024+Q13309); experiment: Inhibition of GST-tagged SKP2 (unknown origin) binding to His6-tagged CKS1 (unknown origin) incubated for 1 hr by pull down method; assay type: protein assay
[16] = Toxicity against NOD-SCID mouse assessed as change in liver morphology at 25 to 50 mg/kg, IG administered for 21 days by H and E staining based assay; assay type: organism-based; conditions: in vivo, po, 504 h, dose 25-50 mg/kg, time 21 day
[17] = test system: PC-3; experiment: Induction of cell cycle arrest in human PC-3 cells assessed as cells at S phase at 7.5 uM incubated for 36 hrs by PI staining based flow cytometry (reference value: 22.8%); assay type: functional
[18] = test system: MGC-803; experiment: Induction of cell cycle arrest in human MGC-803 cells assessed as cells at S phase at 7.5 uM incubated for 36 hrs by PI staining based flow cytometry (reference value: 18.2%); assay type: functional
[19] = test system: MGC-803; experiment: Induction of cell cycle arrest in human MGC-803 cells assessed as cells at G0/G1 phase at 15 uM incubated for 24 hrs by PI staining based flow cytometry (reference value: 57.9%); assay type: functional
[20] = test system: PC-3; experiment: Induction of cell cycle arrest in human PC-3 cells assessed as cells at G0/G1 phase at 15 uM incubated for 36 hrs by PI staining based flow cytometry (reference value: 54.5%); assay type: functional
[21] = test system: MGC-803; experiment: Induction of cell cycle arrest in human MGC-803 cells assessed as cells at S phase at 15 uM incubated for 48 hrs by PI staining based flow cytometry (reference value: 19.6%); assay type: functional
[22] = test system: MGC-803; experiment: Induction of cell cycle arrest in human MGC-803 cells assessed as cells at S phase at 15 uM incubated for 6 hrs by PI staining based flow cytometry (reference value: 19.6%); assay type: functional
[23] = test system: PC-3; experiment: Induction of cell cycle arrest in human PC-3 cells assessed as cells at S phase at 15 uM incubated for 12 hrs by PI staining based flow cytometry (reference value: 22.9%); assay type: functional
[24] = test system: PC-3; experiment: Inhibition of cell proliferation in human PC-3 cells incubated for 24 to 72 hrs by MTT assay; assay type: functional, cell-based; conditions: dose 2-50 µM, time 24-72 hrs
[25] = test system: MGC-803; experiment: Inhibition of cell proliferation in human MGC-803 cells incubated for 72 hrs by MTT assay; assay type: functional, cell-based; conditions: MGC-803, 72 h
[26] = Cmax in Sprague-Dawley rat at 50 mg/kg, po measured upto 24 hrs by LC/MS-MS analysis; assay type: ADME, organism-based; conditions: in vivo
[27] = test system: PC-3; experiment: Induction of cell cycle arrest in human PC-3 cells assessed as cells at S phase at 15 uM incubated for 36 hrs by PI staining based flow cytometry (reference value: 22.8%); assay type: functional
[28] = Clearance in Sprague-Dawley rat at 1 mg/kg, iv measured upto 24 hrs by LC/MS-MS analysis; assay type: ADME, organism-based; conditions: in vivo
[29] = AUClast in Sprague-Dawley rat at 1 mg/kg, iv measured upto 24 hrs by LC/MS-MS analysis; assay type: ADME, organism-based; conditions: in vivo
[30] = test system: MGC-803; experiment: Inhibition of colony formation in human MGC-803 cells incubated for 10 days by crystal violet staining based inverted microscopic analysis; assay type: functional, cell-based; conditions: dose 1-3 µM, time 10.0 day
[31] = test system: PC-3; experiment: Induction of cell cycle arrest in human PC-3 cells assessed as cells at G2/M phase at 15 uM incubated for 24 hrs by PI staining based flow cytometry (reference value: 21.4%); assay type: functional
[32] = Toxicity against NOD-SCID mouse assessed as change in spleen morphology at 25 to 50 mg/kg, IG administered for 21 days by H and E staining based assay; assay type: organism-based; conditions: in vivo, po, 504 h, dose 25-50 mg/kg, time 21 day
[33] = test system: PC-3; experiment: Inhibition of cell migration in human PC-3 cells incubated for 48 hrs by wound healing assay; assay type: functional, cell-based; conditions: dose 2.5-7.5 µM
[34] = test system: MGC-803; experiment: Induction of cell cycle arrest in human MGC-803 cells assessed as cells at G0/G1 phase at 7.5 uM incubated for 36 hrs by PI staining based flow cytometry (reference value: 57.1%); assay type: functional
[35] = test system: MGC-803; experiment: Induction of cell cycle arrest in human MGC-803 cells assessed as cells at G0/G1 phase at 15 uM incubated for 36 hrs by PI staining based flow cytometry (reference value: 57.1%); assay type: functional
[36] = Toxicity against NOD-SCID mouse assessed as body weight loss at 25 to 50 mg/kg, IG administered for 21 days; assay type: organism-based; conditions: in vivo, po, 504 h, dose 25-50 mg/kg, time 21 day
[37] = Toxicity against NOD-SCID mouse assessed as change in lung morphology at 25 to 50 mg/kg, IG administered for 21 days by H and E staining based assay; assay type: organism-based; conditions: in vivo, po, 504 h, dose 25-50 mg/kg, time 21 day

Sequence of Cyclin-dependent kinases regulatory subunit 1/S-phase kinase-associated protein 2 (Homo sapiens) (P61024 2-79 limits assumed): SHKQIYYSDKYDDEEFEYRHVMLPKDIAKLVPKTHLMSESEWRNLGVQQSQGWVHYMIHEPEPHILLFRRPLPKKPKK
Sequence of Cyclin-dependent kinases regulatory subunit 1/S-phase kinase-associated protein 2 (Homo sapiens) (Q13309 whole entry partner): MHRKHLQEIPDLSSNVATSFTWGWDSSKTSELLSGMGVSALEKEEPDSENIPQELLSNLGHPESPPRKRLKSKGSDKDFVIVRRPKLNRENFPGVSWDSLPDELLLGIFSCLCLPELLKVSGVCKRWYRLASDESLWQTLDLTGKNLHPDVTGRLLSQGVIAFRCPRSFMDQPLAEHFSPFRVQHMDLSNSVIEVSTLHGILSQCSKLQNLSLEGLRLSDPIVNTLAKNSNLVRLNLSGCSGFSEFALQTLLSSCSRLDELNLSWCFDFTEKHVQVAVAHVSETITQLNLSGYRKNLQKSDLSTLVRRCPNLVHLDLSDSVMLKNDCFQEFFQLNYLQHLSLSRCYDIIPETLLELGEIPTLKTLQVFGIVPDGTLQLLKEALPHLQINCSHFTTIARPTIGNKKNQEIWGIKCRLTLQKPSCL
Sequence of S-phase kinase-associated protein 2 (Homo sapiens) (Q13309 whole entry): as the sequence (Q13309 whole entry partner) above

In the case of `COc1ccc(-c2cc(C)nc3nc(SCc4ccc(Br)cc4)nn23)c(OC)c1`, the inhibition [1] is reported as “Active”, the Activity [2] is reported as 46.9% and the Activity [3] is reported as 23.2%. The Vdss [4] was 8.87 L/kg, the inhibition [5] was “Dose-Dependent Effect” and the Activity [6] was “Tde”. It also gave an Activity [7] of 16.1%, an Activity [8] of 40.9% and an Activity [9] of 49.8%. The Activity [10] was “Active”, the inhibition [11] was “Tde” and the Activity [12] was “Active”. For the same molecule, the half-life [13] was 9.1 h, the Activity [14] was 39.3% and the inhibition [15] was “Active”. For the same molecule, the Activity [16] was “Non-Toxic”, the Activity [17] was 37.2% and the Activity [18] was 35.8%. For the same molecule, the Activity [19] was 40.4%, the Activity [20] was 30.1% and the Activity [21] was 37.3%. The Activity [22] was 26.8%, the Activity [23] was 32.6% and the inhibition [24] was “Dose-Dependent Effect”. The IC50 [25] was 10.8 µM, the Cmax [26] was 168 ng/mL and the Activity [27] was 44.3%. For the same molecule, the CL [28] was 24 mL/min/kg, the AUC(0-t) at 24 h [29] was 699 ng·h/mL and the inhibition [30] was “Dose-Dependent Effect”. For the same molecule, the Activity [31] was 21.1%, the Activity [32] was “Non-Toxic” and the inhibition [33] was “Dose-Dependent Effect”. For the same molecule, the Activity [34] was 45.1%, the Activity [35] was 39.3% and the Activity [36] was “Non-Toxic”. The Activity [37] was “Non-Toxic”.
